# From article PMC4976923, “Potent Allosteric Dengue Virus NS5 Polymerase Inhibitors: Mechanism of Action and Resistance Profiling” (PLoS Pathogens, 2016)
# Columns and labels:
# DENV4 FL NS5 = target: T1, DENV4 FL NS5 (Dengue virus type 4, UniProt P09866); test: biochemical; settings: Enzyme + compound 20 min, then ssRNA and nucleotides, 2 hr; averaged from ≥3 experiments; read-out: DENV FL NS5 de novo initiation FAPA, IC50, DENV4
# T1 construct: 100 nM DENV FL NS5 protein was added; made in house
# T1 sequence (P09866 2488-3387): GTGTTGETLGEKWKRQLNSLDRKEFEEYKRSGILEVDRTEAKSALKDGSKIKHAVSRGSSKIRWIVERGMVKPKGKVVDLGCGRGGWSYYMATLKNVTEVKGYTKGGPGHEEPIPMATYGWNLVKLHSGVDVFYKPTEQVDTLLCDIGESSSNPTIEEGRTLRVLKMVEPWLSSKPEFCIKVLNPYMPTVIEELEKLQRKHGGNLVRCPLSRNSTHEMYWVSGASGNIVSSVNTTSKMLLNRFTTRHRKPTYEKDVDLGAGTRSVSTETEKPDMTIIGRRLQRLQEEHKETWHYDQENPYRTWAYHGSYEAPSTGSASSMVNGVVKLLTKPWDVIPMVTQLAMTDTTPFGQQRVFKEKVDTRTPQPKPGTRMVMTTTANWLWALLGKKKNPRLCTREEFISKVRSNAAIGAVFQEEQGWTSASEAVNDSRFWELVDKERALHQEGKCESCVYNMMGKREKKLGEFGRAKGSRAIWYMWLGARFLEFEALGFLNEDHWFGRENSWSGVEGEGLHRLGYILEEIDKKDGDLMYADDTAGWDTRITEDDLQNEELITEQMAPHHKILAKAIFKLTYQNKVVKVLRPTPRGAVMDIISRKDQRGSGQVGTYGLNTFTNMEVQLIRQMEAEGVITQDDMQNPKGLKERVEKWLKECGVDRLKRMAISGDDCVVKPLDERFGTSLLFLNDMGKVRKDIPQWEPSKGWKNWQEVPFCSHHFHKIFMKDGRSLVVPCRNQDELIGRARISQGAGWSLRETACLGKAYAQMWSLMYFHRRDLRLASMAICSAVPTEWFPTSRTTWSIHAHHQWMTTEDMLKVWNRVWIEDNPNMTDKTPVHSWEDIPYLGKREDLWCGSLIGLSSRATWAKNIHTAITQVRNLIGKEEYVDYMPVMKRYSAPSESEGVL
# Experimental: DENV1-4 FL NS5 dnI assays were performed as described previously. Briefly, compounds from 0–20 or -100 μM concentrations are two-fold serially diluted into 384-well black opaque plates (Corning Costar), after which 100 nM DENV FL NS5 protein was added and the plates incubated at RT for 20 min. RNA and ATTO-CTP, ATP, GTP and UTP were then added and the plates incubated for another 120 min. […] For order-of-addition experiments, DENV4 FL NS5 was incubated for one hour at RT with RNA, ATP, and GTP or RNA, ATP, GTP and ATTO-CTP, followed by exposure to serially diluted compounds for 20 min at RT. The missing components (ATTO-CTP and UTP or UTP alone) were added and the reactions continued for 120 min after which STOP buffer was added as before. All datapoints were performed in duplicate wells. Each compound was tested at least twice.
# (§1) 2 Co mpound testing with DENV dn I FAPA assays. Final dn I assa y reaction mixtures
# (§2) 3 contained 100 nM DENV 5 ´UTR-L-3´UTR IVT RNA, 20 µ M ATP, 20 µM GTP, 20 µM
# (§3) 4 UTP, 5 µM ATTO -CTP, and 100 nM of DENV FL NS5 protein in 15 µl in assa y buffer
# (§4) 5 comprising 50 mM Tris/ HCl, pH 7.5, 10 mM KCl, 1 mM MgCl2, 0.3 mM MnCl2 (DENV2
# (§5) 6 and 4) or 1 mM MnCl 2 (DENV1 and 3), 0.001% Triton- X-100 and 10 µ M cystein e [ 1] . To
# (§6) 7 perform dose-respons e inhibition measurements, compounds from 0- 20 or - 100 µM
# (§7) 8 concentr ations are two -fold seriall y diluted into 384-well black opaqu e plat es (Corning
# (§8) 9 Costar), after which 100 nM DENV FL NS5 protein was added into resp ect ive wells. The
# (§9) 10 plates wer e sealed, b riefl y shak en and centrif uged at 1500 rpm for 30 sec and incubated at RT
# (§10) 11 for 15 min. Thereafter,RNA and ATTO -CTP, ATP, GTP and UTP were added to the wells to
# (§11) 12 start the reactions. The pl ates wer e re-seal ed, shaken and centrifuged as before, followed b y
# 13 incubation RT for 120 min.
# (§12) 15 intestinal phosphatase (CIP), re- incubation at RT for 60 min and read on a Tecan Safire II
# 16 microplate reader. For o r der-of-addition experiments, DENV4 FL NS5 was incubated for one
# 17 hour at RT with RNA, ATP, and GTP or RNA, ATP, GTP and ATTO-CTP, followed by
# 18 exposure to seriall y dilut ed compounds for 20 mi n at RT. The missing components (ATTO-
# 19 CTP and UTP or UTP alone) were added and the reactions continued for 120 min after which
# 20 STOP buffer was added as before. All datapoints were performed in duplicate wells. Each
# 21 compound was tested at l east twice. […]
# [1] = tested on: clinical DENV2 isolate MY97-10340; test: DENV2 infected A549 cells, high content imaging (HCI); type: cell-based; settings: Dengue virus, 48 hr
# Experimental: as §1, §2, §3, §4, §5, §6, §7, §8, §9, §10, §11
# 13 incubation RT for 120 min. […]
# as §12
# 16 microplate reader. […]
# 8 DENV envelope protein ) and DRAQ5 (for nucl ear DNA) . Quantifications of DENV
# 9 envelope protein were determined using the Opera high content imaging s ystem and anal ysis […]
# 17 µM concentrations. At 48 hr of post-incubation, r enilla luciferas e activities were measured […]
# [2] = tested on: clinical isolates of DENV1-4; settings: across four serotypes; cited from earlier work
# HuH-7 = test: in vitro; type: cell-based; settings: HuH-7 (DENV2 replicon cells); 48 hr; ATP levels
# Experimental: A549, BHK-21 and Huh7 cells bearing stable DENV2 sub-genomic replicon or transiently electroporated DENV2-NGC replicon or infectious virus cDNAs were seeded into 384-well microplate (3,000 cells per well). After over-night incubation at 37°C with 5% CO2, the cells were treated with 2-fold serially diluted compounds, starting from 20 or 50 μM. At 48 hr of post-incubation, renilla luciferase activities were measured with the ViviRen live-cell substrate (Promega, USA) according to the manufacturer’s protocol. CellTiter-Glo reagent (Promega, USA) was then added to determine cytotoxic effects of compounds. For the HCV replicon assay, Huh-7.5 cells harboring the HCV replicon were seeded into a 96-well microplate (20,000 cells per well). At 48 hr after compound treatment, cells were assayed for firefly luciferase activity by using a Bright-Glo luciferase assay (Promega, USA). NITD-008, a nucleoside inhibitor of DENV and HCV was added as a control.
Structure (SMILES),IC50 (DENV4 FL NS5) [nM],EC50 [1] [nM],EC50 [2] [nM],CC50 (HuH-7) [nM]
COc1cccc(S(=O)(=O)NC(=O)c2cc(-c3ccc(C#CCO)s3)c(OC)cc2C)c1 [Compound 26i],109 ± 61,26900,,
COc1cccc(S(=O)(=O)NC(=O)c2cc(-c3ccc(C#CCO)s3)c(OC)cc2OC)c1 [Compound 27],,,~2000,> 50000
